Laboratory results taken from patent EP0616804A1 (priority 1993, dated 1994).
Several values for one entry are separate records, joined by “and”; a condition that tells them apart may be missing. Equal values may be shown once. Read-outs that look alike come from different tables or passages of the source.

Key:
[1] = Light/dark exploration test; assay type: in vivo, mouse; conditions: 10 mg/kg ip, total hours (32) referred to all animals, 8 animals, 4 hours; for Dark section: controls 14; for Lit section: controls 18
Experimental: The test is performed with a cage subdivided into two sections, a dark and a lit one.
Evidence was provided that the mice treated with adequate doses of anxiolytic drugs, e.g. Diazepam or Buspirone, spend a longer time in the lit section than controls.
The anxiolytic activity, if any, of the molecules can be evaluated on the basis of the time spent in the lit section.
The total duration of the test for each group of 8 animals was 4 hours.
The data are expressed as total hours (32) referred to all animals.

[2] = design: species or system Male Sprague-Dawley rats; conditions: rat, in vivo
[3] = Despair test (Porsolt behavioural test, duration of immobility); assay type: in vivo, Male Swiss mice (CD strain, Charles River); conditions: mice; for <%: decrease of immobility vs dose 0; for Duration of immobility: one hour before testing
Experimental: This behavioural test developed by R.D. Porsolt et al. (Arch. int. Pharmacodyn. 229, 327-336, 1977) is commonly used to evaluate the activity of antidepressant agents.
Male Swiss mice (CD strain, Charles River) weighing 30 g were used and assigned at random to the various treatment groups.
The mice were plunged individually into a Plexiglas cylinder of 25 cm in height and 9 cm in diameter, filled with water at 24°C, for a 6 min latency up to 6 cm from the upper lip.
The duration of the test was 6 minutes. The time during which the animal kept floating passively was measured starting from the 2nd minute (duration of immobility).
One hour before testing, sodium gamma-hydroxybutyrate (NaGHB) as an acqueous suspension additioned of non-ionic surfactant Tween was administered by i.p. injection in a volume of 10 ml/kg, or per os.
Blind tests were performed. The statistical analysis of the data was performed, whenever possible, by Student's t-test, otherwise by Mann Whitney's non-parametric test.

Toxicity (LD50), Table 6 = conditions: rat, in vivo, rats, read-out: LD₅₀
Source text: The toxicity of gamma-hydroxybutyrate sodium salt to rats compared with antidepressants and anxiolytics known to the prior art is shown in Table 6.

[4] = rats, ip; antidepressants and anxiolytics known to the prior art; cited from earlier work

## O=C([O-])CCCO.[Na+] [NaGHB, sodium gamma-hydroxybutyrate]
[1]
  Dark section: 9 total hours
  Lit section: 23 total hours
[2]
  mean reaction time: decreased mean reaction time
  number of attempts to escape: increased number of attempts to escape
[2]; 10 mg/kg
  difference between the group of controls and the CNaGHB group: no significant difference
[2]; ip, 10 mg/kg
  Mean reaction time, mean ± S.E.: 5.76±0.34 and 5.4±1.0
  No. of escape failures, mean ± S.E.: 21.3±1.1 and 23.6±2.6
[3]; ip, 5 mg/kg
  <%: 15%
  Duration of immobility: 179 ± 24 s
[3]; ip, 10 mg/kg
  <%: 27%
  Duration of immobility: 153 ± 19 s
[3]; ip, 20 mg/kg
  <%: 36%
  Duration of immobility: 134 ± 26 s
[3]; ip, 40 mg/kg
  <%: 43%
  Duration of immobility: 120 ± 12 s
[3]; per os, 20 mg/kg
  <%: 17%
  Duration of immobility: 189 ± 23 s
[3]; per os, 50 mg/kg
  <%: 40%
  Duration of immobility: 137 ± 16 s
[3]; per os, 100 mg/kg
  <%: 42%
  Duration of immobility: 133 ± 31 s
Toxicity (LD50), Table 6; po, os
  LD50: 12400 mg/kg
Toxicity (LD50), Table 6; ip
  LD50: 3280 mg/kg

## CN1C(=O)CN=C(c2ccccc2)c2cc(Cl)ccc21 [Diazepam]
[1]
  Dark section: 7 total hours
  Lit section: 25 total hours

## O=C1CC2(CCCC2)CC(=O)N1CCCCN1CCN(c2ncccn2)CC1 [Buspirone]
[4]
  LD₅₀: 136 mg/kg
[1]
  Dark section: 10 total hours
  Lit section: 22 total hours
